Measurements as given in patent US9999619B2, “Piperidin-4-yl azetidine derivatives as JAK1 inhibitors” (Incyte Corporation, priority 2010, dated 2018).

Assays:
Assay type in all cases: biochemical
[1] = molecular target: Jak2 (a.a. 828-1132) (Homo sapiens (Human), UniProt O60674); experiment: In vitro JAK kinase assay (HTRF, phosphorylation of a biotinylated peptide), JAK2; conditions: measured at 1 mM ATP
Outline: (§1)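 N-terminal His-tagged catalytic domains, baculovirus-expressed in insect cells, phosphorylated a biotinylated peptide for 1 hr at room temperature. EDTA stop was followed by SA-APC and Eu-Py20 antibody for 40 minutes, with phosphopeptide read by HTRF.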

[2] = molecular target: human JAK1 (a.a. 837-1142); experiment: In vitro JAK kinase assay (HTRF, phosphorylation of a biotinylated peptide), JAK1; conditions: ratio of JAK2 IC50 to JAK1 IC50, measured at 1 mM ATP
Outline: as §1

[3] = molecular target: human JAK1 (a.a. 837-1142) (Homo sapiens, UniProt P23458); experiment: as above; conditions: measured at 1 mM ATP
Outline: as §1

Sequence of Jak2 (a.a. 828-1132) (O60674 828-1132): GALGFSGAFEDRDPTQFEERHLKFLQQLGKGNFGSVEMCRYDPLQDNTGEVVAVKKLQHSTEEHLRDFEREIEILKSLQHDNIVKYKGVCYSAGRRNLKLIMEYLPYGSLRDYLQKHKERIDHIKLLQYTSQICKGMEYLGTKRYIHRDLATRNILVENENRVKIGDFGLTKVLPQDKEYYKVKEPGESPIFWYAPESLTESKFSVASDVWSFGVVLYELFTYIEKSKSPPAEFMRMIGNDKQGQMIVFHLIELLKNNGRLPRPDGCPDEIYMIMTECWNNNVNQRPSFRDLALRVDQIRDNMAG

Compound | IC50 [1] [nM] | IC50 Ratio JAK2/JAK1 [2] | IC50 [3] [nM]
N#CCC1(n2cc(-c3ncnc4[nH]ccc34)cn2)CN(C2CCN(Cc3cc4ccccc4o3)CC2)C1 [Example 232, {1-[1-(1-benzofuran-2-ylmethyl)piperidin-4-yl]-3-[4-(7H-pyrrolo[2,3-d]pyrimidin-4-yl)-1H-pyrazol-1-yl]azetidin-3-yl}acetonitrile] | ≤ 10 | 0.7 | 5 to 20
N#CCC1(n2cc(-c3ncnc4[nH]ccc34)cn2)CN(C2CCN(C(=O)OCC3CC3)CC2)C1 [Example 391, cyclopropylmethyl 4-{3-(cyanomethyl)-3-[4-(7H-pyrrolo[2,3-d]pyrimidin-4-yl)-1H-pyrazol-1-yl]azetidin-1-yl}piperidine-1-carboxylate] | 50 to 100 | 10.6 | 5 to 20
Cc1onc(-c2ccccc2)c1CN1CCC(N2CC(CC#N)(n3cc(-c4ncnc5[nH]ccc45)cn3)C2)CC1 [Example 230, {1-{1-[(5-methyl-3-phenylisoxazol-4-yl)methyl]piperidin-4-yl}-3-[4-(7H-pyrrolo[2,3-d]pyrimidin-4-yl)-1H-pyrazol-1-yl]azetidin-3-yl}acetonitrile] | > 100 | 9.3 | 5 to 20
CCN(CC)Cc1cc(C(=O)N2CCC(N3CC(CC#N)(n4cc(-c5ncnc6[nH]ccc56)cn4)C3)CC2)nc(C(F)(F)F)n1 [Example 373, {1-(1-{[6-[(diethylamino)methyl]-2-(trifluoromethyl)pyrimidin-4-yl]carbonyl}piperidin-4-yl)-3-[4-(7H-pyrrolo[2,3-d]pyrimidin-4-yl)-1H-pyrazol-1-yl]azetidin-3-yl}acetonitrile] | 10 to 50 | 36.8 | ≤ 5
N#CCC1(n2cc(-c3ncnc4[nH]ccc34)cn2)CN(C2CCN(C(=O)c3ccc(-c4ccccc4)cc3)CC2)C1 [Example 114, {1-[1-(biphenyl-4-ylcarbonyl)piperidin-4-yl]-3-[4-(7H-pyrrolo[2,3-d]pyrimidin-4-yl)-1H-pyrazol-1-yl]azetidin-3-yl}acetonitrile] | 10 to 50 | 1.5 | 5 to 20
N#CCC1(n2cc(-c3ncnc4[nH]ccc34)cn2)CN(C2CCN(C(=O)Nc3ccccc3OC(F)F)CC2)C1 [Example 164, 4-{3-(cyanomethyl)-3-[4-(7H-pyrrolo[2,3-d]pyrimidin-4-yl)-1H-pyrazol-1-yl]azetidin-1-yl}-N-[2-(difluoromethoxy)phenyl]piperidine-1-carboxamide] | 10 to 50 | 13.3 | ≤ 5
N#CCC1(n2cc(-c3ncnc4[nH]ccc34)cn2)CN(C2CCN(S(=O)(=O)c3cccc(C#N)c3)CC2)C1 [Example 248, 3-[(4-{3-(cyanomethyl)-3-[4-(7H-pyrrolo[2,3-d]pyrimidin-4-yl)-1H-pyrazol-1-yl]azetidin-1-yl}piperidin-1-yl)sulfonyl]benzonitrile] | > 100 | 5.2 | 20 to 30
N#CCC1(n2cc(-c3ncnc4[nH]ccc34)cn2)CN(C2CCN(Cc3cc(C(F)(F)F)ccc3Cl)CC2)C1 [Example 211, {1-{1-[2-chloro-5-(trifluoromethyl)benzyl]piperidin-4-yl}-3-[4-(7H-pyrrolo[2,3-d]pyrimidin-4-yl)-1H-pyrazol-1-yl]azetidin-3-yl}acetonitrile] | 10 to 50 | 5.0 | 5 to 20
N#CCC1(n2cc(-c3ncnc4[nH]ccc34)cn2)CN(C2CCN(Cc3c(F)cccc3Cl)CC2)C1 [Example 227, {1-[1-(2-chloro-6-fluorobenzyl)piperidin-4-yl]-3-[4-(7H-pyrrolo[2,3-d]pyrimidin-4-yl)-1H-pyrazol-1-yl]azetidin-3-yl}acetonitrile] | ≤ 10 | 7.9 | ≤ 5
N#CCC1(n2cc(-c3c(C#N)cnc4[nH]ccc34)cn2)CN(C2CCN(C(=O)c3cc(Br)cc(Br)c3)CC2)C1 [Example 336, 4-(1-{3-(cyanomethyl)-1-[1-(3,5-dibromobenzoyl)piperidin-4-yl]azetidin-3-yl}-1H-pyrazol-4-yl)-1H-pyrrolo[2,3-b]pyridine-5-carbonitrile] | ≤ 10 | 2.9 | ≤ 5

Further lines, results first:

IC50 [1] [nM] | IC50 Ratio JAK2/JAK1 [2] | IC50 [3] [nM] | Compound
10 to 50 | 5.8 | ≤ 5 | COc1ncccc1NC(=O)N1CCC(N2CC(CC#N)(n3ccc(-c4ncnc5[nH]ccc45)c3)C2)CC1 [Example 284, 4-{3-(cyanomethyl)-3-[3-(7H-pyrrolo[2,3-d]pyrimidin-4-yl)-1H-pyrrol-1-yl]azetidin-1-yl}-N-(2-methoxypyridin-3-yl)piperidine-1-carboxamide]
≤ 10 | 3.9 | ≤ 5 | N#CCC1(n2cc(-c3ncnc4[nH]ccc34)cn2)CN(C2CCN(C(=O)Nc3ccc(Cl)cc3)CC2)C1 [Example 184, N-(4-chlorophenyl)-4-{3-(cyanomethyl)-3-[4-(7H-pyrrolo[2,3-d]pyrimidin-4-yl)-1H-pyrazol-1-yl]azetidin-1-yl}piperidine-1-carboxamide]
10 to 50 | 10.6 | ≤ 5 | N#CCC1(n2cc(-c3ncnc4[nH]ccc34)cn2)CN(C2CCN(C(=O)c3c(F)cc(-c4cccnc4)cc3F)CC2)C1 [Example 116, {1-[1-(2,6-difluoro-4-pyridin-3-ylbenzoyl)piperidin-4-yl]-3-[4-(7H-pyrrolo[2,3-d]pyrimidin-4-yl)-1H-pyrazol-1-yl]azetidin-3-yl}acetonitrile]
10 to 50 | 3.5 | ≤ 5 | N#CCC1(n2cc(-c3ncnc4[nH]ccc34)cn2)CN(C2CCN(C(=O)c3ccc(-c4cc(F)cc(C#N)c4)c(F)c3)CC2)C1 [Example 128, 4′-[(4-{3-(cyanomethyl)-3-[4-(7H-pyrrolo[2,3-d]pyrimidin-4-yl)-1H-pyrazol-1-yl]azetidin-1-yl}piperidin-1-yl)carbonyl]-2′,5-difluorobiphenyl-3-carbonitrile]
≤ 10 | 8.8 | ≤ 5 | N#CCC1(n2cc(-c3ncnc4[nH]ccc34)cn2)CN(C2CCN(C(=O)c3c(F)c(F)cc(F)c3F)CC2)C1 [Example 56, {3-[4-(7H-pyrrolo[2,3-d]pyrimidin-4-yl)-1H-pyrazol-1-yl]-1-[1-(2,3,5,6-tetrafluorobenzoyl)piperidin-4-yl]azetidin-3-yl}acetonitrile]
10 to 50 | 7.8 | ≤ 5 | N#CCC1(n2ccc(-c3ncnc4[nH]ccc34)c2)CN(C2CCN(C(=O)c3cccs3)CC2)C1 [Example 271, {3-[3-(7H-pyrrolo[2,3-d]pyrimidin-4-yl)-1H-pyrrol-1-yl]-1-[1-(2-thienylcarbonyl)piperidin-4-yl]azetidin-3-yl}acetonitrile]
≤ 10 | 6.1 | ≤ 5 | N#CCC1(n2ccc(-c3ncnc4[nH]ccc34)c2)CN(C2CCN(C(=O)c3c(F)ccc(F)c3F)CC2)C1 [Example 270, {3-[3-(7H-pyrrolo[2,3-d]pyrimidin-4-yl)-1H-pyrrol-1-yl]-1-[1-(2,3,6-trifluorobenzoyl)piperidin-4-yl]azetidin-3-yl}acetonitrile]
50 to 100 | 8.2 | 5 to 20 | N#CCC1(n2cc(-c3ncnc4[nH]ccc34)cn2)CN(C2CCN(C(=O)Cc3c(Cl)cccc3Cl)CC2)C1 [Example 112, {1-{1-[(2,6-dichlorophenyl)acetyl]piperidin-4-yl}-3-[4-(7H-pyrrolo[2,3-d]pyrimidin-4-yl)-1H-pyrazol-1-yl]azetidin-3-yl}acetonitrile]
10 to 50 | 3.2 | ≤ 5 | CS(=O)(=O)N1CCC(N2CC(CC#N)(n3ccc(-c4ncnc5[nH]ccc45)c3)C2)CC1 [Example 348, {1-[1-(Methylsulfonyl)piperidin-4-yl]-3-[3-(7H-pyrrolo[2,3-d]pyrimidin-4-yl)-1H-pyrrol-1-yl]azetidin-3-yl}acetonitrile]
10 to 50 | 4.4 | 5 to 20 | N#CCC1(n2cc(-c3ncnc4[nH]ccc34)cn2)CN(C2CCN(C(=O)c3ccccc3C#N)CC2)C1 [Example 10, 2-[(4-{3-(cyanomethyl)-3-[4-(7H-pyrrolo[2,3-d]pyrimidin-4-yl)-1H-pyrazol-1-yl]azetidin-1-yl}piperidin-1-yl)carbonyl]benzonitrile]
≤ 10 | 1.5 | ≤ 5 | N#CCC1(n2cc(-c3ncnc4[nH]ccc34)cn2)CN(C2CCN(C(=O)c3cc4ccccc4s3)CC2)C1 [Example 90, {1-[1-(1-benzothien-2-ylcarbonyl)piperidin-4-yl]-3-[4-(7H-pyrrolo[2,3-d]pyrimidin-4-yl)-1H-pyrazol-1-yl]azetidin-3-yl}acetonitrile]
10 to 50 | 10.0 | ≤ 5 | N#CCC1(n2cc(-c3ncnc4[nH]ccc34)cn2)CN(C2CCN(C(=O)c3ccc(-c4ccncc4)c(F)c3)CC2)C1 [Example 117, {1-[1-(3-fluoro-4-pyridin-4-ylbenzoyl)piperidin-4-yl]-3-[4-(7H-pyrrolo[2,3-d]pyrimidin-4-yl)-1H-pyrazol-1-yl]azetidin-3-yl}acetonitrile]
10 to 50 | 14.3 | ≤ 5 | N#CCC1(n2cc(-c3ncnc4[nH]ccc34)cn2)CN(C2CCN(C(=O)c3ccc(O)c(F)c3)CC2)C1 [Example 6, {1-[1-(3-fluoro-4-hydroxybenzoyl)piperidin-4-yl]-3-[4-(7H-pyrrolo[2,3-d]pyrimidin-4-yl)-1H-pyrazol-1-yl]azetidin-3-yl}acetonitrile]
